The results in this text go back to US20040259096A1, “Receptor capture assay” (priority 2001, published 2004).

Format in all cases: biochemical
For assay [1], the system named is Ah receptor. Briefly: Biotinylated ARNT assay, neutravidin capture, PCR and gel densitometry. The conditions noted are these: 1 μl of 1 nM beta-naphthoflavone. As for the experimental part:
Activation of the Ah receptor with dose was performed in a microfuge tube containing 50 μl of Ah receptor preparation, 1 μl of 200 μg/ml biotinylated ARNT, and 1 μl of 1 nM beta-naphthoflavone and incubated for 1 hr at 30° C. To minimize non-specific interactions, 1-2 μg of salmon sperm DNA was added to the activated complex, along with NaCl to a final concentration of 60 mM. After 10 min at room temperature, varying amounts of nucleic acid-tracer (50-500 fmole) was added, and the reaction allowed to incubate for an additional 10 min at room temperature. The reaction mix (40 μl) was transferred to a neutravidin-coated plate and incubated for 30 min on a Wallac plate shaker at room temperature. The wells were washed five times with Wash Buffer B, soaking wells for 3 min with wash buffer during each cycle, followed by two washes with ultrapure water.
For PCR analysis, 50 μl of PCR reagent was added and the well contents were subjected to 28 cycles of PCR amplification, using GeneAmp PCR System 2700 (Applied Biosystems, Foster City, Calif.). PCR was performed using 50 μl of PCR Master Mix (Promega, Madison, Wis.) diluted to the appropriate concentration with nuclease-free water and 1 μM of each primer was used per PCR reaction. Following the addition of PCR mix, the microtiter strip was sealed with adhesive and placed in the thermocylcer. Samples were initially heated to 95° C. for 5 min to denature the Ah receptor/ARNT complex and free the nucleic acid for PCR analysis then subjected to 28 cycles of 94° C., 30 sec, 52° C., 30 sec, 72° C., 45 sec, followed by 72° C. for 5 min, then cooling to 4° C.
PCR product, 20 μl, was analyzed by 4% agarose gel electrophoresis, with PCR product visualized under UV light by ethidium bromide staining UV light-illuminated gels were photographed using a Polaroid MP 4 Land Camera and Polaroid Type 55 film. Transmission densitometry with film negatives was performed and areas under the peak calculated using arbitrary units.

The test system of assay [2] is Ah receptor. Put plainly: Receptor capture assay employing anti-ARNT magnetic microparticles. The conditions noted are these: 1 μl of 1 nM beta-naphthoflavone. As for the experimental part:
Activation of the Ah receptor with dose was performed in a microtiter strip containing 50 μl of Ah receptor preparation, 1 μl of 200 μg/ml biotinylated ARNT, and 1 μl of 1 nM beta-naphthoflavone and incubated for 1 hr at 30° C. To minimize non-specific interactions, 1-2 μg of salmon sperm DNA was added to the activated complex, along with NaCl to a final concentration of 60 mM. After 10 in room temperature, the nucleic acid-tracer (50 fmole) was added, and the reaction allowed to incubate for an additional 10 min at room temperature. Five μl of a 10% solution of microparticles coated with anti-ARNT antibody was added to each well and incubated for 30 min at room temperature on a Wallac microtiter plate shaker. The wells were washed using a using a LifeSep 96P (Dexter, Elk Grove Village, Ill.) magnet designed for separating magnetic particles in a microtiter plate format The strip was placed on the magnetic separator for three minutes. The beads had migrated to the side of the well by this time and the supernatant was removed by aspiration. The beads were washed four additional times with 150 μl of Wash Buffer B. The beads were captured, supernatant removed, and resuspended in the PCR reaction mix and amplified as in Example 2, B. The amplified product was analyzed by gel electrophoresis.

The target of a further assay is T1, AhR (Cavia porcellus, UniProt Q6J287).
T1 sequence (Q6J287 1-846): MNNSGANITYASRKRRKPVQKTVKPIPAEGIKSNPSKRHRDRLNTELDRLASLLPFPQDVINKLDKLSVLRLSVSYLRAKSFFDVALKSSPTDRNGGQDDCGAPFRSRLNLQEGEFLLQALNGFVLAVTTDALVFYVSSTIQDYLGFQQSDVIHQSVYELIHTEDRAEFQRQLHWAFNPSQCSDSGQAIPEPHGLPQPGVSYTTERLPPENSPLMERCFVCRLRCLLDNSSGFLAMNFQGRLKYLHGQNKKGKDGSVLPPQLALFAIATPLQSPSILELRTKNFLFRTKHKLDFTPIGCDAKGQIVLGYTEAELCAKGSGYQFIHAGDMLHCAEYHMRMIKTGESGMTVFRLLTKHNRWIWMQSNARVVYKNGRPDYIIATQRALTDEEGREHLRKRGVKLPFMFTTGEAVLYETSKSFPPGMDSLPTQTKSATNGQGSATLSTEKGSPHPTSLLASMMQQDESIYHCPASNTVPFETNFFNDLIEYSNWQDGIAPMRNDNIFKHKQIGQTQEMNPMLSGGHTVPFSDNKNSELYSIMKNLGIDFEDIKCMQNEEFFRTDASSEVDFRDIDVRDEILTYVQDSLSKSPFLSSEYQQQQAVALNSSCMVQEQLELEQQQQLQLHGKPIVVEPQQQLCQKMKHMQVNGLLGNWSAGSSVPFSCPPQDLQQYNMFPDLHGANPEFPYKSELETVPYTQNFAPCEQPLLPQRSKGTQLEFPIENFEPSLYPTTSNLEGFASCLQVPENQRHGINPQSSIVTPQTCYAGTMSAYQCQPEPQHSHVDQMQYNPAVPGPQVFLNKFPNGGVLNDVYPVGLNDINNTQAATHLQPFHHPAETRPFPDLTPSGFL
Put plainly: Receptor capture assay, real-time PCR, AhR derived from guinea pig. On the set-up: The cytosol containing AhR heteromers was stored at; from tissue; host or cells: liver cytosol of Hartley guinea pigs. As for the experimental part: A set of calibrators consisting of 5000, 2500, 1250, 626, 313, 156, and 78 parts per trillion (ppt or pg/ml) 2,3,7,8-tetrachlorodibenzo-p-dioxin (TCDD) was prepared in methanol. In addition to TCDD a set of calibrators for AhR agonist, beta-naphthoflavone (BNF) was prepared and analyzed in the assay. Separately, 25 ul of 1:50,000 dilution of 10 uM stock nucleic acid-tracer was added per 1 ml of rodent cytosol, which was the source of AhR, and was aliquoted into glass tubes. The standards were diluted 1:20 into 50-100 ul of rodent cytosol, and incubated for 1-2 hr at room temperature to 37° C. Following incubation, 40 to 100 ul of the reaction was transferred to each well of the antibody-coated Capture Strip and incubated on a shaking platform for 30 min to 1 hr at room temperature. The Capture Strips were washed 5 times with Wash Buffer B, and aspirated; optionally soaking wells for 30 sec-5 min with wash buffer during each cycle. Taqman® Universal PCR Master Mix, primers, and Taqman® probe (Applied Biosystems, Calif.) were added, and adhesive cover applied. PCR was performed and analyzed using an ABI PRISM® 7700, using default settings: 50° C., 2 min, 95° C. […] A threshold cycle (Ct) was determined for each reaction The Ct represents the PCR cycle at which an increase in reporter fluorescence above baseline signal can first be detected.
(In general: Quantitative PCR measures a nucleic acid by following its amplification.)

For `O=c1cc(-c2ccccc2)oc2ccc3ccccc3c12` [BNF, beta-naphthoflavone], the “area under the peak, PCR product densitometry” value in the assay with Ah receptor [1] (Nucleic Acid-Tracer 63 fmol) was 459 arbitrary units; in the assay with Ah receptor [1] (Nucleic Acid-Tracer 125 fmol) it was 349 arbitrary units; in the assay with Ah receptor [1] (Nucleic Acid-Tracer 250 fmol), 392 arbitrary units; in the assay on Ah receptor [1] (Nucleic Acid-Tracer 500 fmol) it was 392 arbitrary units. Besides, in the assay on Ah receptor [2], the “amplified DNA over DMSO vehicle controls (gel electrophoresis)” value was “significant increase in DNA”.
On to `Clc1cc2c(cc1Cl)Oc1cc(Cl)c(Cl)cc1O2` [TCDD, 2,3,7,8-tetrachlorodibenzo-p-dioxin], for which the “slope of dose-response curve” value on AhR is reported as −1.042. Further, the “EC50 of dose-response curve” value at AhR (pg of TCDD in the assay) is on record as 2.6 pg.
